# Test results: patent publication US20060088545A1, “Use of inhibitors of the protease of the human immunodeficiency virus (hiv) to block cell migration and/or invasion, tissue infiltration and oedema for the therary of diseases associated therewith” (priority 2001, published 2006)
# Entries after “also recorded” stand apart in the source; their conditions may differ.
# Experiments:
# [1] = system: hepato-carcinoma (SK-Hep-1) cells; assay: Tumour lesions induced by SK-Hep-1 cells in nude mice; type: in vivo; conditions: 5×10^6 cells/site; daily treatment
# Method: Twenty-four hours before cell injection, the mice have received sub-lethal irradiation (400 G) in order to increase the tumour up-take. The treatment with HIV-PI or saline solution continued until sacrifice. The size of the lesions present at the injection site was evaluated daily by caliper measurement. External lesion area was then calculated as the product of the two major lesion diameters. The mean size (cm^2) of the lesions present at the injection site is shown.
# To determine whether HIV-PI could inhibit the growth of malignant solid and lymphoid tumours, nude mice were inoculated with hepato-carcinoma cells (SK-Hep-1), lung carcinoma cells (A549), breast adeno-carcinoma cells (MDA-MB-468), myelo-monocytic leukaemia cells (U937), and T lymhocytic leukaemia cells (Jurkat).
# [2] = system: lesions induced by bFGF and VEGF combined; assay: Angiogenic KS-like lesions induced by bFGF and VEGF combined in nude mice; type: in vivo; conditions: bFGF 0.1 μg + VEGF 1 μg
# Method: Since VEGF co-operates synergistically with bFGF in inducing angiogenesis and KS-lesion formation, mice (6 animals/group) were also inoculated with sub-optimal amounts of bFGF (0.1 μg) and VEGF (1 μg) combined, as previously performed to observe their synergistic effect (Samaniego et al 1998), and treated with HIV-PI as indicated above.
# At sacrifice the sites of injection were examined for the presence of macroscopic angioproliferative lesions and tissue stained by H & E and analysed microscopically. Here are listed the number (No.) of mice that developed lesions with respect to the number (No.) of mice inoculated, and the percentage (%) of mice that developed lesions.
# KS cells = assay: KS cell proliferation (trypan blue dye exclusion); type: cell-based, human; conditions: 7 days
# IL-1β = IL-1β production by KS cells (ELISA); type: cell-based, human; conditions: 0.1, 1 and 10 μM, 5 days + 24 hours
# Method: (§1) After 24 hours of incubation, the supernatants of the cultures were tested by ELISA (R & D Systems, Minneapolis, Minn., USA) to determine the quantity of IL-6 present in the medium. The quantity of IL-6 is expressed in pg/ml of supernatant. The same tests were carried out for bFGF, VEGF, IL-1α and IL-1β by means of commercial ELISA kits.
# (§2) KS cells secrete cytokines with an inflammatory, oedemigenic, angiogenic and proliferative activity with autocrine and paracrine effects (Ensoli and Stürzl, 1998). These factors mediate all the processes required for KS-like lesions formation (angiogenesis, cellular proliferation and invasion, inflammatory Infiltration, oedema) and vascular permeability and oedema induced by KS cells in nude mice. […] The quantity of bFGF, VEGF, IL-1 and IL-6 was dosed with immuno-enzymatic trials in the supernatants of the KS cells after 24 hours of culture in the absence of serum and in the continuous presence of the two HIV-PI (ELISA). […] Furthermore IL-6 plays a key role in the multicentric Cstleman's diseases and in the growth of lymphomas (Tosato et al., 1993; Peterson and Frizzera, 1993; Asou et al., 1998; Ramsay et al., 1994), another type of tumour whose incidence is reduced in patients treated with HIV-PI (International Collaboration on HIV and Cancer 2000).
# EA-hy 926 cells = assay: Tumour angiogenic lesions induced by Ea-hy 926 cells in nude mice, no drug pre-treatment; type: in vivo; conditions: treatment started on the day of cell inoculation, 5 days
# Method: Mice were inoculated subcutaneously into the lower back with Ea-hy 926 cells (3×10^6 cells/animal in 0.2 ml of 10% FBS RPMI 1640) or with the resuspension medium, all mixed with 0.2 ml of growth factor-depleted matrigel (BD Biosciences, Bedford, Mass.) prior to inoculation as described above. […] Treatment was then continued for 5 days, until sacrifice. The size of the lesions present at the injection site was evaluated daily by caliper measurement. External lesion area was then calculated as the product of the two major lesion diameters. The mean size (cm^2) of the lesions present at the injection site is shown.
# To determine whether HIV-PI could inhibit the growth of a malignant angiogenic tumour, nude mice were inoculated with the EA-hy 926 cell line. This cell line is derived from a hybrid between H-UVEC and human lung adeno-carcinoma cells (Edgell et al, PNAS 1983), retains most of the endothelial cell markers and is used as an angiogenic tumour model (Albini et al, Nat Med 1996; Albini et al, PNAS 1995; Cai et al, Lab Invest 1999). HIV-PI were administered to nude mice starting 2 days prior to tumour cell inoculation. […] Similarly, the external tumour area was reduced in mice treated with both HIV-PI (P<0.05), reaching the size of the negative controls (Table 7). […] Inhibition of tumour growth was also observed in the absence of drug pre-treatment (FIG. 25). […]
# IL-1α = IL-1α production by KS cells (ELISA); type: cell-based, human; conditions: 0.1, 1 and 10 μM, 5 days + 24 hours
# Method: as §1, §2
# [3] = system: endothelial/lung carcinoma hybrid (Ea-hy 926) cells; assay: Cell growth assay of Ea-hy 926 cells; type: cell-based, human; conditions: 1 μM; 5 days
# Method: The assays have been performed essentially as described in key to FIG. 1. No growth factors were added to EA-hy 926 cells since they produce factors which mediates cell growth in autocrine fashion (Edgell et al., 1983, Albini et al., PNAS 1995, Albini et al., Nat Med 1996). […] The assays have been performed essentially as described in legend to FIG. 3. Average and variation range of two independent experiments each performed in duplicate are shown.
# [4] = system: breast carcinoma cells (MDA-MB-468); assay: Cell growth assay of MDA-MB-468 cells; type: cell-based, human; conditions: 10 μM; 4 days
# Method: Shown is the result of a representative cell growth assay performed on the breast carcinoma cells. Human breast carcinoma cells (MDA-MB468; ATCC) were plated in triplicate (8×10^4 cells/well) in 12-well plates. […] Ensoli et al., 1994b): For all the in vitro studies HIV-PI as endotoxin-free pure powder (a kind gift of Merck Sharp & Dohme and Roche) were resuspended in distilled water. Assays were repeated at least three times.
Structure (SMILES),development of tumour lesions (lesion size) [1],No. of mice developing lesions/No. of mice [2],mice developing lesions (%) [2] [%],"KS cell proliferation (viable cells, trypan blue) (KS cells)",production of IL-1β by KS cells (IL-1β),production of IL-1β by KS cells (IL-1β; listed as indinavir),regression of tumour angiogenic lesions (lesion size) (EA-hy 926 cells),production of IL-1α by KS cells (IL-1α),production of IL-1α by KS cells (IL-1α; listed as indinavir),proliferation [3],proliferation [4]
"CC(C)(C)NC(=O)[C@@H]1CN(Cc2cccnc2)CCN1C[C@@H](O)C[C@@H](Cc1ccccc1)C(=O)N[C@H]1c2ccccc2C[C@H]1O [Indinavir, indinavir]",inhibit,2/6,33,no effect,inhibited,reduced,promote the regression,inhibited,reduced,do not interfere,do not interfere
"CC(C)(C)NC(=O)[C@@H]1C[C@@H]2CCCC[C@@H]2CN1C[C@@H](O)[C@H](Cc1ccccc1)NC(=O)[C@H](CC(N)=O)NC(=O)c1ccc2ccccc2n1 [Saquinavir, saquinavir]",inhibit,1/6,17,no effect,reduced; also recorded: inhibited,–,promote the regression,reduced; also recorded: inhibited,–,do not interfere,do not interfere
